# Measurements reported in patent US7470446B2, “Method and system for supplying amino acids or chemical derivatives in liquid form to ruminant livestock” (Archer-Daniels-Midland Company, priority 2000, dated 2008).
# Where two headings read alike, the source gives them in different places.
# Test: Plasma lysine response after liquid lysine drench
# Type: in vivo, bovines
# Details: cattle (bovine), oral, 60 g; for concentration at 148 min: 148 minutes (so in the source)
# Source text: The following study, performed using liquid lysine supplied in a 60-gram amino acid dose in a liquid drench to two bovines, gave the following response curves in the plasma level of the lysine, which is an index of its absorption by the animals, and illustrates that the esophageal muscle reflex is active: […]
# [1] = Cow 1, 60-gram dose, read-out: Cow 1, plasma lysine
# [2] = Cow 2, 60-gram dose, read-out: Cow 2, plasma lysine
smiles,measurement,setting,value
"NCCCC[C@H](N)C(=O)O [liquid lysine, lysine]",concentration at 0 min,"Cow 1, 60-gram amino acid dose, read-out: Cow 1, plasma lysine",10000 ng/mL
same,concentration at 80 min,[1],11300 ng/mL
same,concentration at 148 min,[1],19700 ng/mL
same,concentration at 160 min,[1],12400 ng/mL
same,concentration at 240 min,[1],16100 ng/mL
same,concentration at 360 min,[1],17300 ng/mL
same,concentration at 420 min,[1],17500 ng/mL
same,concentration at 540 min,[1],19300 ng/mL
same,concentration at 600 min,[1],15400 ng/mL
same,concentration at 24 h,[1],14400 ng/mL
same,concentration at 0 min,"Cow 2, 60-gram amino acid dose, read-out: Cow 2, plasma lysine",10700 ng/mL
same,concentration at 80 min,[2],10800 ng/mL
same,concentration at 148 min,[2],20000 ng/mL
same,concentration at 160 min,[2],13600 ng/mL
same,concentration at 240 min,[2],22400 ng/mL
same,concentration at 360 min,[2],24200 ng/mL
same,concentration at 420 min,[2],24200 ng/mL
same,concentration at 540 min,[2],17000 ng/mL
same,concentration at 600 min,[2],14200 ng/mL
same,concentration at 24 h,[2],12000 ng/mL
